Laboratory results reported in publication PMC11939078, “TAK-994 mechanistic investigation into drug-induced liver injury” (Toxicological Sciences, 2025).

Key:
human liver microtissues = assay: Human liver microtissue (co-culture) cytotoxicity, cellular ATP; type: cell-based
Method: Toxicology of TAK-994 was assessed using lnSphero’s 3D lnSight Human Liver models, based on N-acetyl-L-cysteine causality assay, glutathione depletion assay, and lipopolysaccharide (LPS)-sensitization assay. Hepatotoxicity was assessed in 7- and 14-day mono and co-culture models, in which cells were exposed to TAK-994 (0.1, 0.3, 1, 3.16, 10, 31.6, or 100 μM) […].
The test system was Human 3D InSight Liver Models, production ID hLiMT_589, cryopreserved primary human hepatocytes (Lot IPDH_18; single donor) in monoculture or in co-culture with cryopreserved primary human nonparenchymal cells (Lot IPHN_17; single donor). Human liver microtissues are composed of roughly 1000 hepatocytes and 1000 non-parenchymal live cells. Non-parenchymal liver cell fractions are expected to be composed of Kupffer cells and liver endothelial cells however, these were not identified.
The culture medium was 3D InSight Human Liver Maintenance Medium TOX (Catalogue No. CS-07-001, InSphero). The treated cells in 96-well Akura™ plates were incubated in a humidified cell culture incubator (37°C, 5% CO2).
Mono and co-culture model cells were exposed to TAK-994 (0.1, 0.3, 1, 3.16, 10, 31.6, or 100 μM in 0.5% DMSO) for 7 days (TAK-994 administered on Days 0 and 4) or 14 days (TAK-994 administered on Days 0, 5, and 9). Six replicates were tested for each condition. The vehicle control was 0.5% DMSO, and the positive control was chlorpromazine (0.1, 0.3, 1, 3.16, 10, 31.6, or 100 μM in DMSO). Cellular ATP content was measured in the cell lysate on Days 7 or 14 of treatment. LDH release was measured in the cell supernatant on Days 4 and 7 or on Days 5, 9, and 14 and normalized to lysed controls.
Intracellular ATP content in model lysates was measured with the CellTiter-Glo® 2.0 Cell Viability Assay (Catalogue No. G9243, Promega). The Bioluminescent LDH Release Toxicity Assay Kit (Catalogue No. J2380, Promega) was used to assess extracellular LDH release and normalized to lysed controls. ATP, LDH, GSH, and triglycerides were measured according to internal technical operating procedures.

patients with narcolepsy = assay: Phase II studies TAK-994-1501 and TAK-994-1504
cynomolgus monkeys = assay: Monkey 39-week oral gavage toxicity study; type: in vivo, cynomolgus monkey; conditions: for Histopathological Liver Findings / ALT / AST / GLDH: monkey 39-week; for ALT / AST / GLDH: mean (SD)
Source text: TAK-994 performed well in tiered safety screening assays, with wide margins between in vitro IC50 and the predicted efficacious exposures (Table 1). […] Based on the safety profiles observed in these animal studies, TAK-994 progressed into phase I clinical trials.
^bAll dose levels had 4 animals per sex. No statistical difference was observed between the TAK-994 and control groups.

HepG2 cells = assay: HepG2 Glu/Gal 24-h cytotoxicity (mitochondrial toxicity); type: cell-based, human; conditions: glucose or galactose medium
Method: Cytotoxicity of TAK-994 was evaluated in glucose or galactose medium after 24 h and in glucose medium after 72 h in HepG2 cells, with cryopreserved HepG2 cells thawed and seeded onto assay plates at 5,000 cells/well in glucose or galactose medium for the 24-h assay and at 2,500 cells/well in glucose medium for the 72-h assay. After ∼24 h of incubation at 37 °C in 5% CO2, the cells were incubated with test solutions under the same conditions for 24 h for the plate with 5,000 cells/well or 72 h for the plate with 2,500 cells/well. Cytotoxicity of TAK-994 was also assessed using HepG2 cells with CYP3A4 overexpression using a lentivirus vector. HepG2/CYP3A4 cells were incubated in media containing TAK-994 (0.09 to 200 μM), positive control aflatoxin B1 (0.04 to 80 μM), or 1.0% DMSO (negative control). In both cytotoxicity assays, adenosine triphosphate (ATP) content was assessed after incubation using a commercial luminescence assay (CellTiter-Glo; Promega Co., Ltd, WI, United States).
HepG2 cells (American Type Culture Collection [ATCC, VA, USA]) were acclimated to Dulbecco's Modified Eagle Medium (DMEM; Thermo Fisher Scientific, MA, USA) with either high glucose or high galactose and containing 10% FBS for 1 week then cryopreserved. […] After the incubation, CellTiter-Glo® (Promega Co., Ltd., WI, USA) was added to the assay plates, cells were incubated for 30 minutes, and luminescence was recorded to measure the ATP content using an EnVision plate reader (PerkinElmer Co., Ltd., MA, USA). The test compound TAK-994 was evaluated at concentrations of 0.046, 0.14, 0.41, 1.2, 3.7, 11, 33, and 100 μM. Positive controls rotenone and staurosporine were purchased from FUJIFILM Wako Pure Chemical Corporation (Osaka, Japan) and evaluated at concentrations of 0.046, 0.14, 0.41, 1.2, 3.7, 11, 33, and 100 μM in DMSO (rotenone) or 0.0046, 0.014, 0.041, 0.12, 0.37, 1.1 , 3.3, and 10 μM in DMSO (staurosporine). […]

SMILES: CC(C)(O)C(=O)N1CC[C@H](NS(C)(=O)=O)[C@@H]1Cc1cccc(-c2cc(F)cc(F)c2)c1F.CC(C)(O)C(=O)N1CC[C@H](NS(C)(=O)=O)[C@@H]1Cc1cccc(-c2cc(F)cc(F)c2)c1F.O.O.O [TAK-994]
- loss of cellular ATP (human liver microtissues; 100 µM TAK-994, presence of nonparenchymal cells): ~50%
- liver microtissue IC50 relative to clinical Cmax (human liver microtissues; 14 days, Cmax in patients dosed at 90 mg): > 100 fold
- IC50 (human liver microtissues; cellular ATP, read-out: IC50, liver microtissues (Fig. 2B)): > 100 µM
- subjects who met discontinuation criteria due to increases in liver transaminases (patients with narcolepsy; 90- and 180-mg BID treatment groups): 8
- cases that satisfied Hy's Law criteria, diagnosed as DILI (patients with narcolepsy; 90 and 180 mg dose groups): 3
- adverse liver findings, chronic dose toxicity study (cynomolgus monkeys; cynomolgus monkeys, 9-mo, up to the high dose tested of 1,000 mg/kg): no adverse liver findings
- Histopathological Liver Findings (cynomolgus monkeys; female, 60 mg/kg): No adverse findings
- ALT (cynomolgus monkeys; female, 60 mg/kg): 35 (9) IU/L
- AST (cynomolgus monkeys; female, 60 mg/kg): 31 (6) IU/L
- GLDH (cynomolgus monkeys; female, 60 mg/kg): 11 (2) IU/L
- Histopathological Liver Findings (cynomolgus monkeys; female, 200 mg/kg): No adverse findings
- ALT (cynomolgus monkeys; female, 200 mg/kg): 28 (9) IU/L
- AST (cynomolgus monkeys; female, 200 mg/kg): 27 (12) IU/L
- GLDH (cynomolgus monkeys; female, 200 mg/kg): 11 (1) IU/L
- Histopathological Liver Findings (cynomolgus monkeys; female, 1000 mg/kg): No adverse findings
- ALT (cynomolgus monkeys; female, 1000 mg/kg): 34 (10) IU/L
- AST (cynomolgus monkeys; female, 1000 mg/kg): 24 (5) IU/L
- GLDH (cynomolgus monkeys; female, 1000 mg/kg): 12 (1) IU/L
- Histopathological Liver Findings (cynomolgus monkeys; male, 60 mg/kg): No adverse findings
- ALT (cynomolgus monkeys; male, 60 mg/kg): 42 (20) IU/L
- AST (cynomolgus monkeys; male, 60 mg/kg): 30 (12) IU/L
- GLDH (cynomolgus monkeys; male, 60 mg/kg): 12 (3) IU/L
- Histopathological Liver Findings (cynomolgus monkeys; male, 200 mg/kg): No adverse findings
- ALT (cynomolgus monkeys; male, 200 mg/kg): 32 (2) IU/L
- AST (cynomolgus monkeys; male, 200 mg/kg): 23 (7) IU/L
- GLDH (cynomolgus monkeys; male, 200 mg/kg): 13 (1) IU/L
- Histopathological Liver Findings (cynomolgus monkeys; male, 1000 mg/kg): No adverse findings
- ALT (cynomolgus monkeys; male, 1000 mg/kg): 33 (9) IU/L
- AST (cynomolgus monkeys; male, 1000 mg/kg): 22 (4) IU/L
- GLDH (cynomolgus monkeys; male, 1000 mg/kg): 13 (3) IU/L
- IC50 (HepG2 cells): > 100 µM
